Literature values as cited in patent publication US7479387B2, “Compositions and methods for the synthesis and subsequent modification of uridine-5′-diphosphosulfoquinovose (UDP-SQ)” (Michigan State University, priority 2000, dated 2009).

Legend:
[1] = test system: mammalian DNA polymerases; conditions: background statement, Ohta et al. 1998
[2] = molecular target: T1, Human Immunodeficiency Virus Reverse Transcriptase 1 (HIV-RT1) (Human immunodeficiency virus type 1 group M subtype B, UniProt P03366); conditions: background statement, Ohta et al. 1998
T1 construct: Human Immunodeficiency Virus Reverse Transcriptase 1 (HIV-RT1)

tumor promotion = conditions: background statement, Shirahashi et al. 1993

6-sulfo-α-D-quinovosyl diacyglycerol [SQDG]
inhibition of several mammalian DNA polymerases [1]: potent inhibitor | inhibition of HIV-RT1 [2]: potent inhibitor | anti-tumor promoting properties (tumor promotion): anti-tumor promoting properties
